Test results published in patent US20080025960A1, “Detergents with stabilized enzyme systems” (priority 2006, published 2008).

Tests used:
glucose oxidase [1] = target: T1, glucose oxidase (Aspergillus niger, UniProt P13006); test: Premature hydrogen peroxide generation by glucose oxidase in control buffer or AATCC liquid detergent stock (as is) with glucose and inhibitor, dipsticks; assay type: biochemical; settings: 1 M inhibitor; same methods as Examples 1-4
T1 construct: purchased Genencor OXYGO L-5000
Text: In this Example, experiments conducted to assess the stabilization of glucose oxidase in the presence of its substrate (i.e., glucose) and an inhibitor (i.e., sodium hydrogen sulfite) is described. In these experiments, AATCC standard detergent (American Association of Textile Chemists and Colorists Heavy Duty Liquid detergent version 2003 without brightener; key components include linear alkane sulfonate, alcohol ethoxylate, propanediol, citric acid, fatty acid, castic soda and water; purchased from TestFabrics) was used.
In these experiments, 100 mM Tris pH 8.3, with 0.005% TWEEN®-100 surfactant used as a positive control. […] Three two-ml tubes were weighed with 0.990 g of AATCC detergent (lot # 01282004) and another three tubes with 0.990 g of control buffer. Then, 90 mg (500 mM) of glucose substrate were added to all of the tubes. Next, 100, 50, and 10 mM sodium hydrogen sulfite (MW 106.1) were added to each tube respectively, including the control buffer and AATCC detergent control. All of the tubes were placed on a rotary plate for an hour to allow good mixing and solubilization of glucose into the detergent. Then, 500 PPM (0.5 mg, 14.88 ul) glucose oxidase (OXYGO™ L-5000, 5379 U/ml; 33.6 mg/ml; Genencor) was added to six 2-ml tubes (three with glucose/bisulfite containing control buffers and three with glucose/bisulfite containing AATCC detergent). All of the tubes were then set on the rotary plate (60 rpm) at room temperature. Hydrogen peroxide production was measured using dipsticks (peroxidase/ABTS—Baker Testrips;Baker) at various times—t=0+minutes, 12 minutes, and 30 minutes. The tube containing 100 mM bisulfite with glucose, glucose oxidase in liquid detergent was further monitored for premature generation of hydrogen peroxide further over a period of time starting at 1 hr, 12 hr, 7 days, 12 days and up to 21 days.
In these experiments, 100 mM Tris pH 8.3, with 0.005% TWEEN®-100 surfactant was used as a positive control. […] Three two-ml tubes were weighed with 0.990 g of AATCC detergent (lot # 01282004) and another three tubes with 0.990 g of control buffer.
Three two-ml tubes containing 0.990 g of AATCC detergent (lot # 01282004) and another three tubes with 0.990 g of control buffer were weighed. Then, 90 mg (500 mM) glucose substrate was added to each tube. Then, 100, 50, and 10 mM sodium metabisulfite were added to each tube respectively (i.e., both control buffer and AATCC detergent-containing tubes). All of the tubes were placed on a rotary plate for an hour to allow good mixing and solubilization of glucose into the detergent. Next, 500 PPM (0.5 mg, 14.88 ul) glucose oxidase (OXYGO™ L-5000, 5379 U/ml; 33.6 mg/ml; Genencor) was added to six 2-ml tubes (three with glucose/metabisulfite containing control buffers and three with glucose/metabisulfite containing AATCC detergent). All of the tubes were then set on the rotary plate (60 rpm) at room temperature. H2O2 production was measured using dipsticks (peroxidase/ABTS), as described in Examples 1 and 2, for t=0+ minutes, 12 minutes, and 30 minutes. The tube containing 100 mM bisulfite with glucose, glucose oxidase in liquid detergent was further monitored for premature generation of hydrogen peroxide further over a period of time starting at 1 hr, 12 hr, 7 days, 12 days and up to 21 days.

alcohol oxidase [2] = target: T2, alcohol oxidase (Pichia angusta, UniProt P04841); test: Hydrogen peroxide concentration in control buffer or AATCC liquid detergent stock (as is) with alcohol oxidase, ethanol and inhibitor; assay type: biochemical, Hansunela sp.; settings: for H2O2 PPM: as is, 1 M ethanol, 10U enzyme, 100 mM inhibitor
T2 construct: purchased Sigma
Procedure: In these experiments, the stability of alcohol oxidase obtained from Hansunela sp., (100 U/ml. 22 U/mg, 13 mg total solid in vial, 7.7 U/mg solid; Sigma) in AATCC liquid detergent was tested. In these experiments, 10 U of the alcohol oxidase were used in liquid detergent stock for each experiment. For testing, 1M ethanol was mixed into the detergent (46 mg ethanol in 990 mg detergent). […] The experiments were conducted as described above in Examples 1 and 3.

alcohol oxidase [3] = target: T2, alcohol oxidase; test: Hydrogen peroxide concentration in wash liquor with alcohol oxidase, ethanol and inhibitor; assay type: biochemical, Hansunela sp.; settings: 2 mM ethanol, 0.02U enzyme, 0.2 mM inhibitor
Procedure: The stability and activity of the alcohol oxidase enzyme (described in Example 5) in AATCC liquid detergent (Sigma, 100 U/ml. 22 U/mg, 13 mg total solid in vial, 7.7 U/mg solid) was tested upon dilution into wash liquor. In these experiments, 10 U of alcohol oxidase were used in liquid detergent stock for each experiment. In addition, 1M ethanol (substrate) was mixed in detergent (46 mg ethanol in 990 mg detergent). […] In these experiments, 10 ul of final detergent mix or control mix were added to 5 ml of wash liquor. The same methods as described in Examples 2 and 4 were used in these experiments.

glucose oxidase [4] = target: T1, glucose oxidase; test: Premature hydrogen peroxide generation by glucose oxidase in control buffer or AATCC liquid detergent stock (as is) with glucose and inhibitor, dipsticks; assay type: biochemical; settings: 2 M hydroxylamine; detergent containing 1 M glucose and 500 PPM glucose oxidase
choline oxidase [5] = target: T3, choline oxidase (Arthrobacter globiformis, UniProt Q7X2H8); test: H2O2 in control buffer or AATCC liquid detergent stock with choline oxidase, choline and inhibitor; assay type: biochemical; settings: for H2O2 PPM: 1 M choline
T3 sequence (Q7X2H8 1-546): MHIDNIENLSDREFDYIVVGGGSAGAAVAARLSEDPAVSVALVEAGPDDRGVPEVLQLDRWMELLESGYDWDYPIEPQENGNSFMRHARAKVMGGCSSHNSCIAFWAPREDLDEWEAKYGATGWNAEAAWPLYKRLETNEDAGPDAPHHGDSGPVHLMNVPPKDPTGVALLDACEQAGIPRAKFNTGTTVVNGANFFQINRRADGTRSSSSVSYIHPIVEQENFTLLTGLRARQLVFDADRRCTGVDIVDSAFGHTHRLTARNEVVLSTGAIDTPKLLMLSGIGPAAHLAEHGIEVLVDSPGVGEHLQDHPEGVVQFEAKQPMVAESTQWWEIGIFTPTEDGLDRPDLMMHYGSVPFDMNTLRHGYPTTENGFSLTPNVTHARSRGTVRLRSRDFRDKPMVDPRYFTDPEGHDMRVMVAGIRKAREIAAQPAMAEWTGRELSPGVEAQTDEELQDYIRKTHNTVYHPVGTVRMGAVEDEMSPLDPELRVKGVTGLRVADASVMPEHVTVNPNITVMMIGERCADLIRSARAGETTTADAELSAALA
Procedure: In this Example, experiments conducted to assess the stabilization of choline oxidase in the presence of its substrate (i.e., choline) and an inhibitor (i.e., sodium bisulfite and 2-amino,2-methyl,1-propanol) is described. In these experiments, AATCC standard detergent was used.
(§1) The experiments were conducted as described in Example 1. Choline oxidase produces two moles of H2O2 per mole of choline. The results obtained in these experiments confirmed that choline oxidase was stable in AATCC detergent over 24 hour period tested in presence of choline and inhibitors. […] Upon dilution in wash liquor, detergent containing choline oxidase, choline chloride and an inhibitor (e.g., sodium hydrogen sulfite or 2-amino,2-methyl,1-propanol) produced H2O2 over time, as indicated in Table 5.

choline oxidase [6] = target: T3, choline oxidase; test: H2O2 in wash liquor with choline oxidase, choline chloride and inhibitor; assay type: biochemical; settings: 2 mM choline chloride, 0.02U enzyme, 0.4 mM AMP inhibitor
Procedure: as §1

T2 sequence (P04841 whole entry): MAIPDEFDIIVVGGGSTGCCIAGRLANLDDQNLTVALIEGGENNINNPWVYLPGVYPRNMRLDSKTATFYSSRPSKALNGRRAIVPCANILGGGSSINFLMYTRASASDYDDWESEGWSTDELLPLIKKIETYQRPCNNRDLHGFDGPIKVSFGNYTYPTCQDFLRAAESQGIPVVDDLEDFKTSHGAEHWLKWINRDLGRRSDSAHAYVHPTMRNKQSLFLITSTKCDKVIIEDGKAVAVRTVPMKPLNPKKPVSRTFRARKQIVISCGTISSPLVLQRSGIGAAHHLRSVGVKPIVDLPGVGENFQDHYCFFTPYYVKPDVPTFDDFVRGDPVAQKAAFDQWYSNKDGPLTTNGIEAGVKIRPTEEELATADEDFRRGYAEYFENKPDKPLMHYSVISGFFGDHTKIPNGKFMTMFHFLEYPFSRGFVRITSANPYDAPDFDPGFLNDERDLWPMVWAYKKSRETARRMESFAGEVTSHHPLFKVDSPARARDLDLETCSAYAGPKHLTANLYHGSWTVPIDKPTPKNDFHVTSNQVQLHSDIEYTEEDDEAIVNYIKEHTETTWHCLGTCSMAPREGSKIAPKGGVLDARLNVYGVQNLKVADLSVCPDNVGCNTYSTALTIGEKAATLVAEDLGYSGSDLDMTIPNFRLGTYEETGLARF
T1 sequence (P13006 17-605): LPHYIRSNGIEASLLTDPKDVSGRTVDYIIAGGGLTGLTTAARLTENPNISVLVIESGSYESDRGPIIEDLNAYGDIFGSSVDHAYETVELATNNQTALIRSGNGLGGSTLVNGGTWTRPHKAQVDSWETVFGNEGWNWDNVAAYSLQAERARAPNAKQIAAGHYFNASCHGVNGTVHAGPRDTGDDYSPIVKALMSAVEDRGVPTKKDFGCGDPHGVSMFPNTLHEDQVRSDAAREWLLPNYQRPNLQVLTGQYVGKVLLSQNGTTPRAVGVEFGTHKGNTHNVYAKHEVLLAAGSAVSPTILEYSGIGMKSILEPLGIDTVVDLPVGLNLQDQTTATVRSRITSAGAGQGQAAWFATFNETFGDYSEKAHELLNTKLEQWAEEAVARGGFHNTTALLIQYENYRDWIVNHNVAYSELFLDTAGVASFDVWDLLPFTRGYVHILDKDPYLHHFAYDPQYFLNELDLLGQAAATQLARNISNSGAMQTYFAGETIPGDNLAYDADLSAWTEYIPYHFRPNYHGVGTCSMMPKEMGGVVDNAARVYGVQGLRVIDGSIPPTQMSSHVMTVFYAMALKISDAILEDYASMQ

## [F-].[Na+] [sodium fluoride]
Glucose oxidase [1]
  glucose oxidase inhibition: small degree of glucose oxidase inhibition

## O=S(O)(O)=S [sodium thiosulfate]
Glucose oxidase [1]
  glucose oxidase inhibition: small degree of glucose oxidase inhibition
Alcohol oxidase [2]; 100 mM concentration tested
  character of alcohol oxidase inhibition: week inhibitor
Alcohol oxidase [2]; AATCC Detergent, T = 0+
  H2O2 PPM: 3 PPM
Alcohol oxidase [2]; AATCC Detergent, T = 120 min
  H2O2 PPM: (>10--thiosulfate) PPM
Alcohol oxidase [2]; Control Buffer, T = 0+
  H2O2 PPM: ˜10 PPM
Alcohol oxidase [2]; Control Buffer, T = 120 min
  H2O2 PPM: 0 PPM
Alcohol oxidase [3]; AATCC Detergent, T = 0+
  H2O2 PPM: 0 PPM
Alcohol oxidase [3]; AATCC Detergent, T = 30 min
  H2O2 PPM: 0 PPM
Alcohol oxidase [3]; AATCC Detergent, T = 120 min
  H2O2 PPM: >3 (thiosulfate) PPM
Alcohol oxidase [3]; Control Buffer, T = 0+
  H2O2 PPM: 0 PPM
Alcohol oxidase [3]; Control Buffer, T = 30 min
  H2O2 PPM: 0 PPM

## NO [hydroxylamine]
Glucose oxidase [4]
  stabilization of premature hydrogen peroxide generation: can stabilize premature hydrogen peroxide generation

## CC(C)(N)CO [AMP, 2-amino,2-methyl,1-propanol]
Choline oxidase [5]; AATCC Detergent, T = 0+, 1U enzyme, 100 mM AMP inhibitor
  H2O2 PPM: 0 PPM
Choline oxidase [5]; AATCC Detergent, T = 12 min, 1U enzyme, 100 mM AMP inhibitor
  H2O2 PPM: 1 PPM
Choline oxidase [5]; AATCC Detergent, T = 12 min, 1U or 10U enzyme, 200 mM AMP (pH ~9.3)
  H2O2 PPM: 0 PPM
Choline oxidase [5]; AMP used at 200 mM
  premature regeneration of H2O2 in detergent: stops premature regeneration of H2O2
Choline oxidase [5]; Control Buffer, T = 0+, 1U enzyme, 100 mM AMP inhibitor
  H2O2 PPM: 0 PPM
Choline oxidase [5]; Control Buffer, T = 12 min, 1U enzyme, 100 mM AMP inhibitor
  H2O2 PPM: 1 PPM
Choline oxidase [5]; Control Buffer, T = 12 min, 1U or 10U enzyme, 200 mM AMP (pH ~9.3)
  H2O2 PPM: 0 PPM
Choline oxidase [5]; sodium hydrogen sulfite at 100 mM concentration tested
  character of choline oxidase inhibition: reversible inhibitor
Choline oxidase [6]; AATCC Detergent, T = 0+
  H2O2 PPM: 1 PPM
Choline oxidase [6]; AATCC Detergent, T = 12 min
  H2O2 PPM: 3 PPM
Choline oxidase [6]; AATCC Detergent, T = 30 min
  H2O2 PPM: 3 PPM
Choline oxidase [6]; AATCC Detergent, T = 60 min
  H2O2 PPM: 10 PPM
Choline oxidase [6]; Control Buffer, T = 0+
  H2O2 PPM: 1 PPM
Choline oxidase [6]; Control Buffer, T = 12 min
  H2O2 PPM: 3 PPM
Choline oxidase [6]; Control Buffer, T = 30 min
  H2O2 PPM: 3 PPM
Choline oxidase [6]; Control Buffer, T = 60 min
  H2O2 PPM: 10 PPM
